Experimental data from the NIST ThermoML archive (doi:10.1021/je800110r).

Conditions: 323.14 K, Liquid, Vibrating tube method

CCCCCCCCCC [decane]
Conditions | mass density [kg/m3]
6233 kPa | 712.5
6244 kPa | 712.5
6414 kPa | 712.6
6459 kPa | 712.7
6531 kPa | 712.7
6557 kPa | 712.8
6576 kPa | 712.8
6597 kPa | 712.9
6619 kPa | 712.7
6725 kPa | 712.9
6747 kPa | 713
6764 kPa | 712.9
6781 kPa | 713.1
6809 kPa | 713
6826 kPa | 713
6855 kPa | 713
6870 kPa | 713
6893 kPa | 713.1
7285 kPa | 713.4
7382 kPa | 713.6
7397 kPa | 713.5
7411 kPa | 713.6
7428 kPa | 713.5
7445 kPa | 713.5
7465 kPa | 713.7
7482 kPa | 713.5
7509 kPa | 713.6
7525 kPa | 713.5
7542 kPa | 713.8
7557 kPa | 713.7
7580 kPa | 713.6
7601 kPa | 713.7
7618 kPa | 713.7
7634 kPa | 713.7
7652 kPa | 713.7
7670 kPa | 713.8
7683 kPa | 713.8
7696 kPa | 713.7
7715 kPa | 713.7
7737 kPa | 713.8
7758 kPa | 713.9
7774 kPa | 713.9
7790 kPa | 713.8
7809 kPa | 713.9
7828 kPa | 713.9
7850 kPa | 714
7869 kPa | 714
7894 kPa | 713.9
7916 kPa | 713.9
7935 kPa | 714.1
7956 kPa | 714
7977 kPa | 714.1
7997 kPa | 714.1
8016 kPa | 714
8033 kPa | 714.1
8054 kPa | 714.1
8074 kPa | 714.1
8097 kPa | 714.1
8121 kPa | 714.2
8138 kPa | 714.2
8158 kPa | 714.1
8179 kPa | 714.2
8197 kPa | 714.3
8218 kPa | 714.3
8245 kPa | 714.3
8263 kPa | 714.3
8284 kPa | 714.3
8306 kPa | 714.4
8333 kPa | 714.4
8348 kPa | 714.4
8376 kPa | 714.5
8451 kPa | 714.3
8476 kPa | 714.5
8495 kPa | 714.5
8518 kPa | 714.6
8543 kPa | 714.5
8582 kPa | 714.5
8625 kPa | 714.6
8654 kPa | 714.7
8677 kPa | 714.6
8707 kPa | 714.7
8738 kPa | 714.7
8762 kPa | 714.6
8789 kPa | 714.7
8813 kPa | 714.7
8834 kPa | 714.8
8855 kPa | 714.8
8876 kPa | 714.7
8907 kPa | 714.8
8932 kPa | 714.8
8957 kPa | 714.9
8990 kPa | 714.8
9031 kPa | 715
9048 kPa | 715
9072 kPa | 715.1
9095 kPa | 715
9118 kPa | 715.1
9139 kPa | 715
9160 kPa | 715.1
9185 kPa | 715.1
9212 kPa | 715
9231 kPa | 715
9255 kPa | 715.2
9277 kPa | 715.1
9304 kPa | 715.3
9344 kPa | 715.2
9366 kPa | 715.1
9390 kPa | 715.1
9415 kPa | 715.2
9434 kPa | 715.3
9476 kPa | 715.4
9504 kPa | 715.4
9524 kPa | 715.4
9550 kPa | 715.4
9576 kPa | 715.4
9607 kPa | 715.3
9630 kPa | 715.4
9653 kPa | 715.5
9676 kPa | 715.5
9703 kPa | 715.4
9721 kPa | 715.6
9741 kPa | 715.5
9766 kPa | 715.5
9789 kPa | 715.5
9813 kPa | 715.5
9834 kPa | 715.6
9852 kPa | 715.7
9870 kPa | 715.7
9901 kPa | 715.7
9920 kPa | 715.7
9941 kPa | 715.6
9965 kPa | 715.8
9990 kPa | 715.7
10015 kPa | 715.8
10040 kPa | 715.9
10068 kPa | 715.9
10093 kPa | 715.9
